Measurements from patent publication US4405627A, “Diphenylpropylamino-pyridine compounds useful as medicines” (Italiana Schoum S.p.A., priority 1979, dated 1983).
Counter-ions that a name gives are not always drawn.

What was measured:
guinea pig ileum [1] = experiment: Acetylcholine-induced contraction on guinea pig ileum in vitro; set-up: species or system guinea pig (Whitish female); conditions: for IC50: Cavia porcellus, acetylcholine 0.1 mcg/ml, Tyrode, 37° C., 3 minutes before spasmogen, read-out: CI50 (the source's name); for acetylcholine-induced contraction on guinea pig ileum: result in words
Protocol: (§1) On the guinea pig ileum, which has a minimum intrinsic motility but a remarkable sensibility to agents causing a contracture or a relaxation of the intestinal smooth muscular system, it was possible to further evaluate the spasmolytic activity of the examined substances. As spasmogenic agents acetylcholine and BaCl2 were used which were respectively added to the bath at final concentrations of 0.1 mcg/ml and 50 mcg/ml.
(§2) Ten preparations of guinea pig ileum for each compound were prepared, yet maintaining the same dose range which was used on rabbit ileum.
(§3) The contractions were measured by means of an isotonic transducer connected with a microdynamometer. Each preparation was left dipped for about 30 minutes up to reach the equilibrium.
(§4) After this time, the single doses of each substance to be examined were introduced three minutes before the spasmogenic substance which was contacted with the preparation for 1 minute. Before the subsequent dose of drug was introduced, the tested organ was allowed to recover the basal conditions and this was ascertained by using the only spasmogenic substance. The process was repeated for all the other concentrations. Afterwards the comparison with the reference spasmolytic substance having a known activity, namely papaverine, was carried out yet working in the same conditions and according to the same procedure.

guinea pig ileum [2] = experiment: BaCl2-induced contraction on guinea pig ileum in vitro; set-up: species or system guinea pig (Whitish female); conditions: for IC50: Cavia porcellus, BaCl2 50 mcg/ml, Tyrode, 37° C., 3 minutes before spasmogen, read-out: CI50 (the source's name); for BaCl2-induced contraction on guinea pig ileum: result in words
Protocol: as §1, §2, §3, §4

rabbit ileum [3] = experiment: Spontaneous motility in vitro of rabbit ileum; set-up: species or system rabbit (New Zealand male); conditions: Oryctolagus cuniculus; 50% reduction of amplitude of the basal contraction; Tyrode, 37° C.; read-out: CI50 (the source's name)
Protocol: The spontaneous motility of the preparations was measured by a isotonic transducer connected with a microdynamometer. Each preparation was previously left dipped for about one hour in the solution up to reach the osmotic equilibrium.
After this time the single compounds were poured in the bath in gradual doses up to notice the quite total disappearance of spontaneous activity in the organ. For sake of comparison parallel tests with papaverine were carried out.

rabbit ileum [4] = experiment: BaCl2-induced contraction on isolated rabbit ileum; conditions: Oryctolagus cuniculus; 50% reduction of the BaCl2-induced contraction; BaCl2 50 mcg/ml; read-out: CI50 (the source's name)
Excerpt: The activity of same compounds in antagonizing the spasm as caused by BaCl2 introduced in the bath at a concentration of 50 mcg/ml one minute before each test was studied. Also for this preparation a comparison with papaverine was at last carried out.

small intestine = experiment: Effect on the intestinal progress of opaque meal in rat; type: in vivo, rat (Male Wistar); conditions: for Progress %: 40 minutes after opaque meal, mean of ten ± standard error, controls 81.76 ± 2.33
Protocol: Male Wistar rats weighing 150-180 g were employed subdivided in groups of ten subjects, which were maintained fasting for 18 hours before the test.
Two administration ways were considered: oral and intraperitoneal.
In the first set of tests to every group of animals each compound was orally administered in the form of an aqueous solution or suspension in gum-arabic (10% in water) 40 minutes before an opaque meal consisting of a suspension of 5% vegetable charcoal in gum-arabic (20% in water).
The animals were killed by cranial injury 40 minutes after the oral administration of the opaque meal and the small intestine was drawn. To the control group an equal volume of saline was administered in the same administration way. The second set of tests was carried out by administering intraperitoneally the compounds 30 minutes before the opaque meal. The animals were killed 40 minutes after the swallowing of the alimentary bolus and the small intestine was drawn; to the control group an equal volume of saline was injected. The total length of small intestine and the progress of opaque meal were measured in each killed animal.

[5] = Acute toxicity (DL50) in mouse; type: in vivo; conditions: mouse, in vivo
Protocol: (§5) The determination of the lethal dose to 50% of the animals which were treated with the examined substances was obtained by using male Swiss mice averaging 22 g and by considering two administration ways: oral and intraperitoneal.
(§6) Groups of six animals of each dose were prepared which were kept under observation for 7 days and fasting since the evening before the experience.
(§7) During the observation period possible and clear changes in activity and behaviour were controlled by using the Irwin test: a behavioural outline of the treated animals was obtained with respect to other subjects which received reference drugs.
(§8) The calculation of acute toxicity was carried out by using the Litchfield and Wilcoxon procedure (J. Pharmac. Exp. Ther. 96, 99, 1949).
(§9) The acute toxicity values in mg/kg are given in table 9 in the form of average values with the relevant fiducial limits in comparison with papaverine.

[6] = tested on: acetylcholine-induced chromodacryorrhea; experiment: Anticholinergic activity on chromodacryorrhea from acetylcholine; type: in vivo, rat (male Wistar); conditions: for Chromodacryorrhea: acetylcholine 160 mcg s.c.; for effect on acetylcholine-induced chromodacryorrhea: 50 mg/kg, result in words
Protocol: (§10) In order to evaluate the possible undesirable collateral systemic effects, tests of central and peripheral anticholinergic activity were carried out by using two animal species, mouse and rat.
Another series of experiments was carried out on male Wistar rats averaging 150 g in order to point out the anticholinergic activity at the glandular level.
A first control group consisting of six animals was subcutaneously injected with 160 mcg of acetylcholine.

[7] = tested on: effects caused by Tremorin; experiment: Central and peripheral anticholinergic activity in mouse after administration of Tremorin; type: in vivo, mouse (Swiss male); conditions: for Tremors / Miosis / Ptyalism: Tremorin 25 mg/kg i.p.; for Tremors: central activity; for Miosis / Ptyalism: peripheral activity; for antagonism of the effects of Tremorin / anticholinergic side effects: result in words, hydrochloride; on Miosis: key: +: Presence of the effect (ptyalism, miosis, tremors); -: Lack of the effect (ptyalism, miosis, tremors); on Ptyalism: key: +: Presence of the effect (ptyalism, miosis, tremors); -: Lack of the effect (ptyalism, miosis, tremors); on Tremors: key: +: Presence of the effect (ptyalism, miosis, tremors); -: Lack of the effect (ptyalism, miosis, tremors)
Protocol: as §10
In the first series of tests Swiss male mice averaging 25 g were used which were subdivided in three groups of 8 animals. […] The third, control group was given an equal volume of saline.
In watching the effects caused by Tremorin during the development of its action, beside the time for the appearance of tremors as an index of the central activity, further parameters such as ptyalism and miosis were contemplated as indexes of peripheral activity.

Solubility = type: physicochemical; conditions: saline; read-out: maximum dose consistent with the total solubility in saline
mouse = experiment: Acute toxicity (DL50) in mouse; type: in vivo; conditions: result in words; orally and intraperitoneally
Protocol: as §5, §6, §7, §8, §9

[8] = tested on: carbachol-stimulated intestinal motility; experiment: Effect on intestinal progress in rats after excitation with carbachol; type: in vivo, rat; conditions: 40 mg/kg i.p.; carbachol 30 mcg/kg i.p.; mean of ten ± standard errors; non-stimulated controls 55.7 ± 2.23, stimulated controls 77.95 ± 1.72
Protocol: Subsequently a further series of tests were carried out in order to evaluate the capability of some examined compounds in hindering the stimulating action on intestinal motility of a dose of carbachol at the concentration of 30 mcg/kg when intraperitoneally administered. Carbachol or carbamylcholine chloride is a known substance endowed with parasympathomimetic action.
The control group was given an equal volume of saline.
The survey of the data as given in tables 6 was carried out as previously described by considering the percent intestinal progress of opaque meal with respect to the total length of small intestine.

[9] = po, os, average values with fiducial limits, 7 days observation
[10] = ip, average values with fiducial limits, 7 days observation

| Compound | IC50 (guinea pig ileum [1]) | IC50 (guinea pig ileum [2]) | IC50 (rabbit ileum [3]) | acetylcholine-induced contraction on guinea pig ileum (guinea pig ileum [1]) | BaCl2-induced contraction on guinea pig ileum (guinea pig ileum [2]) | IC50 (rabbit ileum [4]) | LD50 at 168 h [5, 9] | further results |
| --- | --- | --- | --- | --- | --- | --- | --- | --- |
| CC[n+]1ccccc1NCCC(c1ccccc1)c1ccccc1 [2-(3',3'-diphenylpropyl-1'-amino)-1-ethylpyridinium iodide] | 6.2 µM | 3.4 µM | 18 µM |  |  |  |  |  |
| C[n+]1ccccc1NCCC(c1ccccc1)c1ccccc1 [2-(3',3'-diphenylpropyl-1'-amino)-1-methylpyridinium iodide] | 4.6 µM | 4.3 µM | 26 µM | also effective on the acetylcholine-induced contraction | more active than papaverine | 10 µM | 350 mg/kg | Progress % (small intestine; 100 mg/kg os): 73.63 ± 4.33% |
| CC[n+]1cccc(NCCC(c2ccccc2)c2ccccc2)c1 [3-(3',3'-diphenylpropyl-1'-amino)-1-ethylpyridinium iodide] | 12 µM |  | 16 µM |  |  | 35 µM |  |  |
| C[n+]1cccc(NCCC(c2ccccc2)c2ccccc2)c1 [3-(3',3'-diphenylpropyl-1'-amino)-1-methylpyridinium iodide] | 17 µM |  | 15 µM |  |  | 14 µM |  |  |
| CC[n+]1ccc(NCCC(c2ccccc2)c2ccccc2)cc1 [4-(3',3'-diphenylpropyl-1'-amino)-1-ethyl-pyridinium iodide] | 10 µM | 8.9 µM | 24 µM |  |  | 22 µM |  |  |
| C[n+]1ccc(NCCC(c2ccccc2)c2ccccc2)cc1 [4-(3',3'-diphenylpropyl-1'-amino)-1-methyl-pyridinium iodide] | 16 µM |  | 18 µM |  |  | 14 µM |  |  |
| CN1[C@@H]2CC[C@H]1C[C@@H](OC(=O)C(CO)c1ccccc1)C2 (stereo partly shown) [Atropine sulfate, reference compound] |  |  |  |  |  |  |  | Chromodacryorrhea ([6]; 1 mg/kg i.p.): -; Tremors ([7]; 60 mg/kg i.p.): -; Miosis ([7]; 60 mg/kg i.p.): -; Ptyalism ([7]; 60 mg/kg i.p.): - |
| c1ccc(C(CCNc2ccccn2)c2ccccc2)cc1 [N-(2'-pyridyl)-3,3-diphenylpropylamine hydrochloride] | 11 µM | 5.6 µM | 13 µM | also effective on the acetylcholine-induced contraction | more active than papaverine | 14 µM |  | Chromodacryorrhea ([6]; 50 mg/kg i.p.): +; effect on acetylcholine-induced chromodacryorrhea [6]: do not modify the acetylcholine-induced chromodacryorrhea; Tremors ([7]; 50 mg/kg i.p.): +; Miosis ([7]; 50 mg/kg i.p.): +; Ptyalism ([7]; 50 mg/kg i.p.): +; Tremors ([7]; 100 mg/kg i.p.): +; Miosis ([7]; 100 mg/kg i.p.): +; Ptyalism ([7]; 100 mg/kg i.p.): +; antagonism of the effects of Tremorin / anticholinergic side effects ([7]; listed as N-(2'-pyridyl)-3,3-diphenyl-propylamine hydrochloride): does not antagonize the ffects of Tremorin neither at a central level nor at a peripheral level; antagonism of the effects of Tremorin / anticholinergic side effects ([7]; listed as N-(2'-pyridyl)-3,3-diphenylpropylamine hydrochloride): does not show anticholinergic side effects at a central level also at high doses; Progress % (small intestine; 20 mg/kg i.p.): 62.10 ± 2.54%; Progress % (small intestine; 50 mg/kg os): 67.65 ± 2.54%; reducing the progress of an opaque meal (small intestine; oral and intraperitoneal, result in words): the most active compound in reducing the progress of an opaque meal in both of the considered administration ways; solubility (Solubility): 1000 µg/mL; acute toxicity (mouse): The less toxic compound; LD50 at 168 h ([5]; ip): 360 mg/kg; LD50 at 168 h ([5]; po): > 1500 mg/kg; Progress % [8]: 42.25 ± 3.34% |
| c1ccc(C(CCNc2cccnc2)c2ccccc2)cc1 [N-(3'-pyridyl)-3,3-diphenylpropylamine hydrochloride] | 10 µM | 6.7 µM | 12 µM | also effective on the acetylcholine-induced contraction | more active than papaverine | 28 µM | > 800 mg/kg | Chromodacryorrhea ([6]; 50 mg/kg i.p.): +; effect on acetylcholine-induced chromodacryorrhea [6]: do not modify the acetylcholine-induced chromodacryorrhea; Tremors ([7]; 50 mg/kg i.p.): -; Miosis ([7]; 50 mg/kg i.p.): +; Ptyalism ([7]; 50 mg/kg i.p.): +; Tremors ([7]; 100 mg/kg i.p.): -; Miosis ([7]; 100 mg/kg i.p.): -; Ptyalism ([7]; 100 mg/kg i.p.): -; Progress % (small intestine; 20 mg/kg i.p.): 75.06 ± 5.94%; Progress % (small intestine; 100 mg/kg os): 79.10 ± 5.3%; solubility (Solubility): 1000 µg/mL; LD50 at 168 h [5, 10]: 340 mg/kg; Progress % [8]: 49.85 ± 3.34% |
| COc1ccc(Cc2nccc3cc(OC)c(OC)cc23)cc1OC [Papaverine hydrochloride, reference compound] | 8.5 µM | 9.2 µM | 39 µM |  |  | 56 µM | 315 mg/kg | Progress % (small intestine; 200 mg/kg os): 70.2 ± 2.61%; LD50 at 168 h [5, 10]: 66 mg/kg |
